Activity calls are given as the source filed them. The rule behind the calls is not given here.
Legend:
MGC-803 [1] = assay: Antiproliferative activity against human MGC-803 cells assessed as reduction in cell viability incubated for 72 hrs by CCK-8 assay; assay type: functional, cell-based; conditions: MGC-803, 72 h
[2] = target: Signal transducer and activator of transcription 3 (Homo sapiens) (UniProt P40763); assay: Inhibition of STAT3 in human AGS cells assessed as inhibition of STAT3 phosphorylation level at Tyr705 at 0.3 to 3 uM by western blot assay; assay type: cell-based; conditions: dose 0.3-3 µM
Chain of Signal transducer and activator of transcription 3 (Homo sapiens) (P40763 whole entry): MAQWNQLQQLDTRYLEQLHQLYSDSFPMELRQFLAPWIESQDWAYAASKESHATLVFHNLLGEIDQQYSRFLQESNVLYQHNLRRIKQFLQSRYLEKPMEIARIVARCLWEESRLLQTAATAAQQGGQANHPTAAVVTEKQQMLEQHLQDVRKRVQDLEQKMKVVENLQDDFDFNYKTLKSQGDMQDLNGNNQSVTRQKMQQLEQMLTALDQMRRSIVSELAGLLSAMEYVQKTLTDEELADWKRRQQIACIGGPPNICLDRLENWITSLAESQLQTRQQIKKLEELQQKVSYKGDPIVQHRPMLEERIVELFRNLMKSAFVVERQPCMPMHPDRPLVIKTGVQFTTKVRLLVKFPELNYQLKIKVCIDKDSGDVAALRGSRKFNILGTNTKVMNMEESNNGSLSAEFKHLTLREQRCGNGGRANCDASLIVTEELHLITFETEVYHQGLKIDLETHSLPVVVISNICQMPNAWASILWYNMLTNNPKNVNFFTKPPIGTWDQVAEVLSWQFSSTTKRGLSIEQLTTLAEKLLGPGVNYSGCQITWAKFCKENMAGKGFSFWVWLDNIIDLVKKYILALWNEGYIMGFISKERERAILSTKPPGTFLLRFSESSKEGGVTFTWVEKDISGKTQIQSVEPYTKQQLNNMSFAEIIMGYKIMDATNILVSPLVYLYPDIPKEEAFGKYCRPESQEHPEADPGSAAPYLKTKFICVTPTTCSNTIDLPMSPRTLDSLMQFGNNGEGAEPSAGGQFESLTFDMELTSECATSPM

[3] = target: Signal transducer and activator of transcription 3 (Homo sapiens) (UniProt P40763); assay: Inhibition of STAT3 in human MGC-803 cells assessed as inhibition of total STAT3 protein level at 0.3 to 3 uM by western blot assay; assay type: cell-based; conditions: dose 0.3-3 µM
[4] = target: Signal transducer and activator of transcription 3 (Homo sapiens) (UniProt P40763); assay: Inhibition of HA-tagged STAT3 (unknown origin) dimerization transfected in HEK293T cells at 0.3 to 3 uM incubated for 24 hrs followed by IL-6 stimulation and measured after 1 hr by immunoprecipitation assay; assay type: cell-based; conditions: dose 0.3-3 µM, time 25.0 hrs
[5] = target: Signal transducer and activator of transcription 3 (Homo sapiens) (UniProt P40763); assay: Inhibition of Flag-tagged STAT3 (unknown origin) dimerization transfected in HEK293T cells at 0.3 to 3 uM incubated for 24 hrs followed by IL-6 stimulation and measured after 1 hr by immunoprecipitation assay; assay type: cell-based; conditions: dose 0.3-3 µM, time 25.0 hrs
[6] = target: Signal transducer and activator of transcription 3 (Homo sapiens) (UniProt P40763); assay: Inhibition of STAT3 in human AGS cells assessed as reduction of c-Myc protein expression level at 0.3 to 3 uM by western blot assay; assay type: cell-based; conditions: dose 0.3-3 µM
[7] = target: Signal transducer and activator of transcription 3 (Homo sapiens) (UniProt P40763); assay: Inhibition of STAT3 in human AGS cells assessed as reduction of Mcl-1 protein expression level at 0.3 to 3 uM by western blot assay; assay type: cell-based; conditions: dose 0.3-3 µM
AGS [8] = assay: Inhibition of colony formation in human AGS cells at 0.3 to 3 uM incubated for 10 to 15 days by crystal violet staining based assay; assay type: functional, cell-based; conditions: dose 0.3-3 µM, time 10-15 day
AGS [9] = assay: Induction of apoptosis in human AGS cells assessed as viable cells at 0.3 uM incubated for 48 hrs by Annexin V-FITC/PI staining based flow cytometry method (reference value: 94.8 %); assay type: functional; conditions: read-out: Activity
AGS [10] = assay: Induction of apoptosis in human AGS cells assessed as viable cells at 1 uM incubated for 48 hrs by Annexin V-FITC/PI staining based flow cytometry method (reference value: 94.8 %); assay type: functional; conditions: read-out: Activity
AGS [11] = assay: Induction of apoptosis in human AGS cells assessed as early apoptotic cells at 0.3 uM incubated for 48 hrs by Annexin V-FITC/PI staining based flow cytometry method (reference value: 2.38 %); assay type: functional
AGS [12] = assay: Induction of apoptosis in human AGS cells assessed as early apoptotic cells at 1 uM incubated for 48 hrs by Annexin V-FITC/PI staining based flow cytometry method (reference value: 2.38 %); assay type: functional
AGS [13] = assay: Induction of apoptosis in human AGS cells assessed as late apoptotic cells at 1 uM incubated for 48 hrs by Annexin V-FITC/PI staining based flow cytometry method (reference value: 2.46 %); assay type: functional
AGS [14] = assay: Induction of apoptosis in human AGS cells assessed as late apoptotic cells at 3 uM incubated for 48 hrs by Annexin V-FITC/PI staining based flow cytometry method (reference value: 2.46 %); assay type: functional
AGS [15] = assay: Induction of apoptosis in human AGS cells assessed as necrotic cells at 0.3 uM incubated for 48 hrs by Annexin V-FITC/PI staining based flow cytometry method (reference value: 0.32 %); assay type: functional
AGS [16] = assay: Induction of apoptosis in human AGS cells assessed as necrotic cells at 1 uM incubated for 48 hrs by Annexin V-FITC/PI staining based flow cytometry method (reference value: 0.32 %); assay type: functional
AGS [17] = assay: Induction of apoptosis in human AGS cells assessed as necrotic cells at 3 uM incubated for 48 hrs by Annexin V-FITC/PI staining based flow cytometry method (reference value: 0.32 %); assay type: functional
AGS [18] = assay: Inhibition of cell migration in human AGS cells at 0.03 to 0.3 uM incubated for 48 hrs by wound healing assay based microscopic analysis; assay type: functional; conditions: dose 0.03-0.3 µM
AGS [19] = assay: Inhibition of cell invasion in human AGS cells at 0.03 to 0.3 uM incubated for 12 hrs by crystal violet staining based transwell assay; assay type: functional; conditions: dose 0.03-0.3 µM
MGC-803 [20] = assay: Antitumor activity against human MGC-803 cells xenografted in BALB/c mouse assessed as inhibition of tumor volume at 5 to 15 mg/kg,ip administrated for 21 consecutive days; assay type: functional, organism-based; conditions: dose 5-15 mg/kg
[21] = Toxicity in BALB/c mouse xenografted with human MGC-803 cells assessed as morphological change in liver at 5 mg/kg,ip administrated for 21 consecutive days by hematoxylin and eosin staining method; assay type: organism-based; conditions: in vivo
[22] = Toxicity in BALB/c mouse xenografted with human MGC-803 cells assessed as morphological change in lung at 5 mg/kg,ip administrated for 21 consecutive days by hematoxylin and eosin staining method; assay type: organism-based; conditions: in vivo
[23] = Toxicity in BALB/c mouse xenografted with human MGC-803 cells assessed as morphological change in kidney at 5 mg/kg,ip administrated for 21 consecutive days by hematoxylin and eosin staining method; assay type: organism-based; conditions: in vivo
[24] = Toxicity in BALB/c mouse xenografted with human MGC-803 cells assessed as morphological change in liver at 15 mg/kg,ip administrated for 21 consecutive days by hematoxylin and eosin staining method; assay type: organism-based; conditions: in vivo
[25] = Toxicity in BALB/c mouse xenografted with human MGC-803 cells assessed as morphological change in lung at 15 mg/kg,ip administrated for 21 consecutive days by hematoxylin and eosin staining method; assay type: organism-based; conditions: in vivo
MGC-803 [26] = assay: Antitumor activity against human MGC-803 cells xenografted in BALB/c mouse assessed as reduction of Ki67 expression level in tumor at 5 mg/kg,ip administrated for 21 consecutive days by immunohistochemistry analysis; assay type: functional, organism-based
[27] = target: Signal transducer and activator of transcription 3 (Homo sapiens) (UniProt P40763); assay: In vivo inhibition of STAT3 in BALB/c mouse xenografted with human MGC-803 cells assessed as reduction of c-Myc expression in tumor at 5 mg/kg,ip administrated for 21 consecutive days by immunohistochemistry analysis; assay type: functional, organism-based
[28] = target: Signal transducer and activator of transcription 3 (Homo sapiens) (UniProt P40763); assay: In vivo inhibition of STAT3 in BALB/c mouse xenografted with human MGC-803 cells assessed as reduction of c-Myc expression in tumor at 15 mg/kg,ip administrated for 21 consecutive days by immunohistochemistry analysis; assay type: functional, organism-based
[29] = target: Signal transducer and activator of transcription 3 (Homo sapiens) (UniProt P40763); assay: In vivo inhibition of STAT3 in BALB/c mouse xenografted with human MGC-803 cells assessed as reduction of Mcl-1 expression in tumor at 5 mg/kg,ip administrated for 21 consecutive days by immunohistochemistry analysis; assay type: functional, organism-based
[30] = target: Signal transducer and activator of transcription 3 (Homo sapiens) (UniProt P40763); assay: In vivo inhibition of STAT3 in BALB/c mouse xenografted with human MGC-803 cells assessed as reduction of Mcl-1 expression in tumor at 15 mg/kg,ip administrated for 21 consecutive days by immunohistochemistry analysis; assay type: functional, organism-based

Cc1cc(NC(=O)c2ccc([N+](=O)[O-])o2)ccc1-c1cnc2ccccn12
IC50 (MGC-803 [1]): 900 nM
inhibition [2]: Dose-Dependent Effect
inhibition [3]: inactive
inhibition [4]: Dose-Dependent Effect
inhibition [5]: Dose-Dependent Effect
inhibition [6]: Active
inhibition [7]: Active
inhibition (AGS [8]): Dose-Dependent Effect
viability at 0.3 µM (AGS [9]): 93.7%
viability at 1 µM (AGS [10]): 92.1%
Activity (AGS [11]): 2.49%
Activity (AGS [12]): 4.52%
Activity (AGS [13]): 2.67%
Activity (AGS [14]): 6.37%
Activity (AGS [15]): 0.62%
Activity (AGS [16]): 0.75%
Activity (AGS [17]): 0.18%
inhibition (AGS [18]): Dose-Dependent Effect
inhibition (AGS [19]): Active
inhibition (MGC-803 [20]): Dose-Dependent Effect
Activity [21]: Non-Toxic
Activity [22]: Non-Toxic
Activity [23]: Non-Toxic
Activity [24]: Non-Toxic
Activity [25]: Non-Toxic
inhibition (MGC-803 [26]): Active
inhibition [27]: Active
inhibition [28]: Active
inhibition [29]: Active
inhibition [30]: Active

Source: ChEMBL document CHEMBL5247622, “Structural optimization of Imidazo[1, 2-a]pyridine derivatives for the treatment of gastric cancer via STAT3 signaling pathway” (Eur J Med Chem, 2022)
